Laboratory results from PubChem BioAssay AID1919007 (Molecular Pharmacology Branch, DTP, NCI, 2023).

System: A498 complex spheroids with HUVEC/MSC, growth
Test: Anticancer human tumor A498 cell line growth inhibition [AhR];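 also: seven day exposure starting three days after spheroid seeding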;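 as to viability, T/C: luminescence signal used as a surrogate for viable cells; luminescence viability scaled so 100% equals DMSO vehicle wells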
Conditions: for IC50: curve of first compound; for viability, T/C: stronger effect = lower value
Source text: Multicellular complex tumor spheroid response to aryl hydrocarbon receptor antagonists in combination with a variety of drugs and investigational agents in selected tumor cell lines
The current study was undertaken to assess response to aryl hydrocarbon receptor antagonists in combination with standard-of-care drugs and investigational agents in solid tumor complex spheroid models. Complex spheroids include a stromal component modeled by human endothelial cells (HUVEC) and fibroblasts modeled by human mesenchymal stem cells (MSCs). The concentration ranges selected for each drug and investigational agent were based upon clinically achievable concentrations if the clinical Cmax of the agent was known.
Compounds. The drugs and investigational agents: BAY 2416964 (NSC825713), GNF351 (NSC835774), CH-223191 (NSC835775), CPI-455 (NSC825282), aza-TdCyd (NSC777586), decitabine (NSC127716), belinostat (NSC758774), entinostat (NSC756642), pevonedistat (NSC761192), tazemetostat (NSC777109), talazoparib (NSC765396), olaparib (NSC753686), selinexor (NSC780203), nedisertib (M3814, NSC802822), bortezomib (NSC756655), venetoclax (NSC766270), doxorubicin (NSC123127), elimusertib (BAY189344, NSC800525), ceralasertib (AZD6738, NSC777638), TAK-243 (NSC785004), alisertib (NSC759677), etoposide (NSC141540), topotecan (NSC609699), eribulin (NSC707389), gemcitabine (NSC613327), carboplatin (NSC241240), cisplatin (NSC119875), and SN-38 (NSC673596) were obtained from the National Cancer Institute (NCI) Developmental Therapeutics Program Chemical Repository (32). The FDA-approved anticancer drug set is available from the Developmental Therapeutics Program at https://dtp.cancer.gov/organization/dscb/obtaining/available plates.htm. […] The stock solutions were prepared in dimethyl sulfoxide (DMSO, Sigma-Aldrich, St. Louis, MO, cat. D2650), except for the platinum compounds which were prepared in saline (Quality Biological, Gaithersburg, MD, cat. 114-055-101), at 800-fold the tested concentration and stored at -70 degrees C prior to their use. All drugs and investigational agents were tested over a range starting from a high concentration at or near the clinical Cmax and decreasing in half-log increments. If the clinical Cmax for an agent had not been determined, the highest concentration tested was 10 microM (Table 1).
Cell Culture. All cells were maintained in an incubator at 37 degrees C and 5% CO2 with 95% humidity. The PDC lines were cultured according to standard operating procedures established by the NCI PDMR (https://pdmr.cancer.gov). Briefly, all PDCs were thawed and cultured in Matrigel-coated flasks prepared with a working solution of 1X Ham's F-12 nutrient mix, without supplementation (Invitrogen, Waltham, MA, cat. 11765054), 100 U/mL penicillin-streptomycin (Invitrogen, cat. 15140122), and 2.5% Matrigel (Corning Inc., Corning, NY, cat. 354248) for the first three passages. All PDCs were cultured in complete DMEM/F-12 media containing advanced DMEM/F-12 (Invitrogen, cat. 12634028), 4.9% defined fetal bovine serum, heat inactivated (HyClone Laboratories Inc., Logan, UT, cat. SH30070.03HI), 389 ng/mL hydrocortisone (Sigma-Aldrich, cat. H4001), 9.7 ng/mL human EGF recombinant protein (Invitrogen, cat. PHG0313), 23.4 microg/mL adenine (Sigma-Aldrich, cat. A2786), 97.3 U/mL penicillin-streptomycin (Invitrogen, cat. 15140122), 1.9 mM L-glutamine (Invitrogen, cat. 25030081), and 9.7 microM Y-27632 dihydrochloride (Tocris Bioscience, Bristol, United Kingdom, cat. 1254). The PDCs were cultured in complete DMEM/F12 media without 10 microM Y-27632 dihydrochloride for at least two passages prior to the screen. The established cell lines NCI-H1341 and […] were cultured in DMEM/F-12, HEPES (Invitrogen, cat. 11330032), 5% defined fetal bovine serum (HyClone Laboratories Inc., cat. SH30070.03), ITS premix universal culture supplement [insulin (5 microg/mL), transferrin (5 microg/mL), and selenious acid (5 ng/mL)] […]

CCc1c2c(nc3ccc(O)cc13)-c1cc3c(c(=O)n1C2)COC(=O)[C@]3(O)CC + CC(CO)NC(=O)c1cc(-c2ccc(Cl)cc2)nn(-c2cnn(C)c2)c1=O
IC50 (second compound 0.1 µM): 0.0192 µM
IC50 (second compound 0.316 µM): 0.016 µM
IC50 (second compound 1 µM): 0.019 µM
IC50 (second compound 3.16 µM): 0.016 µM
IC50 (second compound 10 µM): 0.00473 µM
viability, T/C (second compound 0.1 µM, first compound 0.000949 µM): 77.1%
viability, T/C (second compound 0.1 µM, first compound 0.003 µM): 77.9%
viability, T/C (second compound 0.1 µM, first compound 0.00949 µM): 61.7%
viability, T/C (second compound 0.1 µM, first compound 0.03 µM): 42.4%
viability, T/C (second compound 0.1 µM, first compound 0.0949 µM): 37.3%
viability, T/C (second compound 0.1 µM, first compound 0.3 µM): 33.1%
viability, T/C (second compound 0.316 µM, first compound 0.000949 µM): 70.8%
viability, T/C (second compound 0.316 µM, first compound 0.003 µM): 70.9%
viability, T/C (second compound 0.316 µM, first compound 0.00949 µM): 57.8%
viability, T/C (second compound 0.316 µM, first compound 0.03 µM): 40.7%
viability, T/C (second compound 0.316 µM, first compound 0.0949 µM): 36.4%
viability, T/C (second compound 0.316 µM, first compound 0.3 µM): 36.7%
viability, T/C (second compound 1 µM, first compound 0.000949 µM): 69.8%
viability, T/C (second compound 1 µM, first compound 0.003 µM): 72.3%
viability, T/C (second compound 1 µM, first compound 0.00949 µM): 62.6%
viability, T/C (second compound 1 µM, first compound 0.03 µM): 41.6%
viability, T/C (second compound 1 µM, first compound 0.0949 µM): 35.5%
viability, T/C (second compound 1 µM, first compound 0.3 µM): 34.1%
viability, T/C (second compound 3.16 µM, first compound 0.000949 µM): 58.8%
viability, T/C (second compound 3.16 µM, first compound 0.003 µM): 63.1%
viability, T/C (second compound 3.16 µM, first compound 0.00949 µM): 58.3%
viability, T/C (second compound 3.16 µM, first compound 0.03 µM): 39.8%
viability, T/C (second compound 3.16 µM, first compound 0.0949 µM): 30.5%
viability, T/C (second compound 3.16 µM, first compound 0.3 µM): 33.8%
viability, T/C (second compound 10 µM, first compound 0.000949 µM): 51.2%
viability, T/C (second compound 10 µM, first compound 0.003 µM): 53.3%
viability, T/C (second compound 10 µM, first compound 0.00949 µM): 46.6%
viability, T/C (second compound 10 µM, first compound 0.03 µM): 36.4%
viability, T/C (second compound 10 µM, first compound 0.0949 µM): 29.3%
viability, T/C (second compound 10 µM, first compound 0.3 µM): 31.8%

Nc1ccn(C2OC(CO)C(O)C2(F)F)c(=O)n1 (stereo not given) + CC(CO)NC(=O)c1cc(-c2ccc(Cl)cc2)nn(-c2cnn(C)c2)c1=O
IC50 (second compound 0.1 µM): < 0.0316 µM
IC50 (second compound 0.316 µM): < 0.0316 µM
IC50 (second compound 1 µM): < 0.0316 µM
IC50 (second compound 3.16 µM): < 0.0316 µM
IC50 (second compound 10 µM): < 0.0316 µM
viability, T/C (second compound 0.1 µM, first compound 0.0316 µM): 26.1%
viability, T/C (second compound 0.1 µM, first compound 0.1 µM): 25.7%
viability, T/C (second compound 0.1 µM, first compound 0.316 µM): 24.6%
viability, T/C (second compound 0.1 µM, first compound 1 µM): 35.1%
viability, T/C (second compound 0.1 µM, first compound 3.16 µM): 32.8%
viability, T/C (second compound 0.1 µM, first compound 10 µM): 29.9%
viability, T/C (second compound 0.316 µM, first compound 0.0316 µM): 27.5%
viability, T/C (second compound 0.316 µM, first compound 0.1 µM): 25.8%
viability, T/C (second compound 0.316 µM, first compound 0.316 µM): 31%
viability, T/C (second compound 0.316 µM, first compound 1 µM): 32.3%
viability, T/C (second compound 0.316 µM, first compound 3.16 µM): 35%
viability, T/C (second compound 0.316 µM, first compound 10 µM): 28.3%
viability, T/C (second compound 1 µM, first compound 0.0316 µM): 25.6%
viability, T/C (second compound 1 µM, first compound 0.1 µM): 29.8%
viability, T/C (second compound 1 µM, first compound 0.316 µM): 32.1%
viability, T/C (second compound 1 µM, first compound 1 µM): 30.2%
viability, T/C (second compound 1 µM, first compound 3.16 µM): 34.4%
viability, T/C (second compound 1 µM, first compound 10 µM): 29.2%
viability, T/C (second compound 3.16 µM, first compound 0.0316 µM): 27.6%
viability, T/C (second compound 3.16 µM, first compound 0.1 µM): 26.1%
viability, T/C (second compound 3.16 µM, first compound 0.316 µM): 34.2%
viability, T/C (second compound 3.16 µM, first compound 1 µM): 33.7%
viability, T/C (second compound 3.16 µM, first compound 3.16 µM): 29.6%
viability, T/C (second compound 3.16 µM, first compound 10 µM): 27.8%
viability, T/C (second compound 10 µM, first compound 0.0316 µM): 33.2%
viability, T/C (second compound 10 µM, first compound 0.1 µM): 30.1%
viability, T/C (second compound 10 µM, first compound 0.316 µM): 27%
viability, T/C (second compound 10 µM, first compound 1 µM): 29.5%
viability, T/C (second compound 10 µM, first compound 3.16 µM): 27.5%
viability, T/C (second compound 10 µM, first compound 10 µM): 24.1%
